Laboratory results: patent US11458138B2 (Novartis AG, priority 2017, dated 2022)

How the values were obtained:
LATS1 = LATS1 (Homo sapiens (Human), UniProt O95835); test: LATS1 biochemical assay (Table 1A, Compound Examples 1-290; method in the earlier part)
[1] = tested on: YAP nuclear translocation in HaCaT cells; test: YAP Translocation Assay (HaCaT Cells); type: cell-based, human; details: Homo sapiens, 24 hours
Procedure, shortened: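 HaCaT cells (20,000/well) in DMEM + 10% FBS were plated overnight at 37° C, then exposed to compound for 24 h at 37° C. Cells were fixed with PFA, permeabilized with 0.1% Triton/1.5% BSA and imaged by high-content imaging.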

[2] = tested on: Phospho-YAP (Ser127) in JHH-5 cells; test: pYAP HTRF Assay (JHH-5 cells); type: cell-based; details: 2 hours
Method: Briefly, JHH-5 cells are suspended at 0.48×10^6 cells/ml in William's E medium without phenol-red (Thermo Fisher Scientific Gibco catalog number A1217601) supplemented with 10% (v/v) heat-inactivated fetal bovine serum (Thermo Fisher Scientific Gibco catalog number 16140071) and penicillin-streptomycin at 100 U/ml each (Thermo Fisher Scientific Gibco catalog number 15140122). Cells are dispensed into 384well clear bottom culture plates (50 ul/well, at 24000 cells per well, Greiner catalog number 781091), and incubated for 24 hours in a cell culture incubator at 37° C. Test compounds are transferred into culture plates containing JHH-5 cells using an Echo550 (Labcyte) acoustic dispenser (50 nl/well), followed by incubation for 2 hours at 37° C. Lysis buffer (part of CisBio kit catalog number 64YAPPEI) is added to the assay plates as a four-fold concentrate (corresponding to 16 ul/well) and incubated for 30 minutes at room temperature with agitation. Lysate is transferred from culture plates into white low-volume 384well assay plates (12 ul/well, Greiner catalog number 784075), followed by the addition of 3 ul/well of detection antibodies (part of CisBio kit catalog number 64YAPPEI: 1:40 dilution of each pYAP d2 antibody and pYAP cryptate antibody stocks). The plates are sealed and incubated overnight (18 hours) at room temperature protected from light. Plates are read on an EnVision plate reader (Perkin Elmer) at emission wavelengths of 665 nm and 620 nm. The HTRF signal ratio x per well is calculated as [x=Signal(665 nm)/Signal(620 nm)×10000] as specified in the manufacturer's protocol.

[3] = tested on: Phospho-YAP (SER127) in HaCaT cells; test: pYAP HTRF Assay (HaCaT Cells); type: cell-based, human; details: Homo sapiens, 2 hours
Procedure, shortened: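 Phospho-YAP (Ser127) was measured by HTRF (665 nm/620 nm ratio) in HaCaT cells. Cells were grown 48 hours at 37° C at 5500 cells/well, exposed to compound for 2 hours, and incubated with detection reagents for 20 hrs at room temperature.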

LATS1, sequence (O95835 whole entry, looked up): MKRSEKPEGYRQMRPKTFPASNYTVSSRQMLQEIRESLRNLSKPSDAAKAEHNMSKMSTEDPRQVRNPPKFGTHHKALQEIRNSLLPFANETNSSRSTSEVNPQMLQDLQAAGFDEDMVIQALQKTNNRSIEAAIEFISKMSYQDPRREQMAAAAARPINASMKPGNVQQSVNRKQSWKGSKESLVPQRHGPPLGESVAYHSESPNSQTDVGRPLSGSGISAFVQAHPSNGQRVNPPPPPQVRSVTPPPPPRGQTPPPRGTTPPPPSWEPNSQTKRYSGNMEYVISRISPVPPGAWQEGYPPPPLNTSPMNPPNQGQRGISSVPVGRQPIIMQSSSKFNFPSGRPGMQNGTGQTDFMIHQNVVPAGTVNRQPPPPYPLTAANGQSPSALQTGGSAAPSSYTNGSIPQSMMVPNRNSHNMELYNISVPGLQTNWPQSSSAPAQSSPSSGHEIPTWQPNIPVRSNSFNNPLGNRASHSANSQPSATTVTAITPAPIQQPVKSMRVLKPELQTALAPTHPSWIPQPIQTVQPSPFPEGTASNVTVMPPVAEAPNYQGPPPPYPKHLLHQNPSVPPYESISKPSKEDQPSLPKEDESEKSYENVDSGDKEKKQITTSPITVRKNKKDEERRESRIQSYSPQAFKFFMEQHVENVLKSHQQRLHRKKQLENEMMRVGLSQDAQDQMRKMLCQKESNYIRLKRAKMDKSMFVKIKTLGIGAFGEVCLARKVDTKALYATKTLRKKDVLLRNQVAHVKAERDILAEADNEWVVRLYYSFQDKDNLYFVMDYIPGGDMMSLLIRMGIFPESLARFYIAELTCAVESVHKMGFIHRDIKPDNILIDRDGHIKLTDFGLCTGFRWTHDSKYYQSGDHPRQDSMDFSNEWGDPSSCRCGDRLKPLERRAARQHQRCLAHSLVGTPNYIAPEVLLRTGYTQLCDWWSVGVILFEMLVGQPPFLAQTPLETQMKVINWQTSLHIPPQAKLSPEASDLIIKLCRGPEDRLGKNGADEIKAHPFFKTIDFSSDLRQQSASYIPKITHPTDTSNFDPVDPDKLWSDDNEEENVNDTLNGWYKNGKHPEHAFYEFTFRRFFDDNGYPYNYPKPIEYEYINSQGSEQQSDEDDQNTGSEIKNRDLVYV
LATS1, sequence (Q7L9L4 whole entry partner, looked up): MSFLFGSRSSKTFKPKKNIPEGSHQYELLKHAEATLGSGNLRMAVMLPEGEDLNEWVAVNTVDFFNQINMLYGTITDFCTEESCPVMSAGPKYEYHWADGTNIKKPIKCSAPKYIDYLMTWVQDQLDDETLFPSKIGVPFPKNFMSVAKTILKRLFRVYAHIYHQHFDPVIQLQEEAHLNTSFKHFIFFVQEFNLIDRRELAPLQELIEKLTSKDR

| SMILES | IC50 (LATS1) [nM] | EC50 [1] [µM] | IC50 [2] [µM] | IC50 [3] [µM] |
| --- | --- | --- | --- | --- |
| Cc1nccc2c(NC3(C)CC3)nc(-c3ccncc3)nc12 [Example 199, 8-methyl-N-(1-methylcyclopropyl)-2-(pyridin-4-yl)pyrido[3,4-d]pyrimidin-4-amine] | 1 | 9.1 | 3.2 |  |
| CN(C)CCC(C)(C)Nc1cc(-c2ccncc2F)nc2cnccc12 [Example 276, (3-{[2-(3-fluoropyridin-4-yl)-1,7-naphthyridin-4-yl]amino}-3-methylbutyl)dimethylamine] | 17 | > 20 | > 10 |  |
| CC[C@@H](C)Nc1cc(-c2ccncc2)nc2cnccc12 [Example 257, N-[(2R)-butan-2-yl]-2-(pyridin-4-yl)-1,7-naphthyridin-4-amine] | 22 | > 20 | > 10 |  |
| CCN(CC)c1cc(-c2ccncc2F)nc2cnccc12 [Example 275, N,N-diethyl-2-(3-fluoropyridin-4-yl)-1,7-naphthyridin-4-amine] | 11 | 15.1 | > 10 |  |
| CC(C)(CNCC(=O)O)Nc1nc(-c2ccncc2)nc2cnccc12 [Example 30, 2-[(2-methyl-2-{[2-(pyridin-4-yl)pyrido[3,4-d]pyrimidin-4-yl]amino}propyl)amino]acetic acid] | 39 | > 20 | > 10 |  |
| FC(F)(F)C1(Nc2nc(-c3cn[nH]c3)nc3cnccc23)CC1 [Example 188, 2-(1H-pyrazol-4-yl)-N-[1-(trifluoromethyl)cyclopropyl]pyrido[3,4-d]pyrimidin-4-amine] | 17 | 12 |  | > 100 |
| CCC(CC)Nc1nc(-c2ccncc2)nc2cnccc12 [Example 73, N-(pentan-3-yl)-2-(pyridin-4-yl)pyrido[3,4-d]pyrimidin-4-amine] | 6 | 8.26 |  | 9.07 |
| CC[C@@H](C)Nc1nc(-c2ccncc2)nc2cnccc12 (single isomer, unassigned) [Example 68b] | 2 | 2.92 |  | 4.27 |
| Fc1cccc(Nc2nc(-c3ccncc3)nc3cnccc23)c1 [Example 95, N-(3-fluorophenyl)-2-(pyridin-4-yl)pyrido[3,4-d]pyrimidin-4-amine] | > 1440 | > 20 |  | > 10 |
| CC1(Nc2nc(-c3c[nH]nn3)nc3cnccc23)CC1 [Example 180, N-(1-methylcyclopropyl)-2-(1H-1,2,3-triazol-4-yl)pyrido[3,4-d]pyrimidin-4-amine] | 322 | > 20 |  | > 10 |
| CC(C)(C#N)Nc1nc(-c2ccncc2)nc2cnccc12 [Example 107, 2-methyl-2-{[2-(pyridin-4-yl)pyrido[3,4-d]pyrimidin-4-yl]amino}propanenitrile] | 8 | 20 |  | 31.2 |
| OCC(CC(F)(F)F)Nc1nc(-c2ccncc2)nc2cnccc12 (stereo not drawn) [Example 76, 4,4,4-trifluoro-2-{[2-(pyridin-4-yl)pyrido[3,4-d]pyrimidin-4-yl]amino}butan-1-ol] | 9 | 9.41 |  | 6.42 |
| OCC1(Nc2nc(-c3cn[nH]c3)nc3cnccc23)CC1 [Example 192, (1-{[2-(1H-pyrazol-4-yl)pyrido[3,4-d]pyrimidin-4-yl]amino}cyclopropyl)methanol] | 201 | > 20 |  | > 10 |
| CCC(C)(C)Nc1nc(-c2ccncc2)nc2cnccc12 [Example 63, N-(2-methylbutan-2-yl)-2-(pyridin-4-yl)pyrido[3,4-d]pyrimidin-4-amine] | 1 | 0.338 |  | 0.131 |
| CC1(Nc2nc(-n3ccc4ncccc43)nc3cnccc23)CC1 [Example 179, N-(1-methylcyclopropyl)-2-{1H-pyrrolo[3,2-b]pyridin-1-yl}pyrido[3,4-d]pyrimidin-4-amine] | 2 | > 20 |  | > 10 |
| CC(C)(CN1CCOCC1)Nc1cc(-c2ccncc2F)nc2cnccc12 [Example 284, 2-(3-fluoropyridin-4-yl)-N-[2-methyl-1-(morpholin-4-yl)propan-2-yl]-1,7-naphthyridin-4-amine] | 30 | > 41.2 |  | 46.5 |

| SMILES | IC50 (LATS1) [nM] | EC50 [1] [µM] | IC50 [2] [µM] | IC50 [3] [µM] |
| --- | --- | --- | --- | --- |
| O[C@@H]1CCC[C@@H]1Nc1nc(-c2ccncc2)nc2cnccc12 [Example 26, (1R,2S)-2-{[2-(pyridin-4-yl)pyrido[3,4-d]pyrimidin-4-yl]amino}cyclopentan-1-ol] | 31 | > 100 |  | 54.6 |
| CCCCN(C)c1nc(-c2ccncc2)nc2cnccc12 [Example 9, N-butyl-N-methyl-2-(pyridin-4-yl)pyrido[3,4-d]pyrimidin-4-amine] | 3 | 2.42 |  | 2.1 |
| CC(O)C(C)Nc1nc(-c2ccncc2)nc2cnccc12 (stereo not drawn) [Example 24, 3-{[2-(pyridin-4-yl)pyrido[3,4-d]pyrimidin-4-yl]amino}butan-2-ol] | 17 | 33.1 |  | 34.7 |
| CC(C)(CC#N)Nc1nc(-c2ccncc2)nc2cnccc12 [Example 104, 3-methyl-3-{[2-(pyridin-4-yl)pyrido[3,4-d]pyrimidin-4-yl]amino}butanenitrile] | 5 | 5.19 |  | 2.6 |
| CC1(Nc2nc(-c3c(F)cncc3F)nc3cnccc23)CC1 [Example 147, 2-(3,5-difluoropyridin-4-yl)-N-(1-methylcyclopropyl)pyrido[3,4-d]pyrimidin-4-amine] | 69 | > 20 |  | > 10 |
| C[C@@H](Nc1nc(-c2ccnn2C)nc2cnccc12)c1ccccc1 [Example 170, 2-(1-methyl-1H-pyrazol-5-yl)-N-[(1R)-1-phenylethyl]pyrido[3,4-d]pyrimidin-4-amine] | 1280 | > 20 |  | > 10 |
| COC(=O)C(C)(C)Nc1nc(-c2ccncc2)nc2cnccc12 [Example 32, Methyl 2-methyl-2-{[2-(pyridin-4-yl)pyrido[3,4-d]pyrimidin-4-yl]amino}propanoate] | 47 | > 20 |  | > 10 |
| Cn1nccc1-c1nc(NC2(CO)CCC2)c2ccncc2n1 [Example 187, (1-{[2-(1-methyl-1H-pyrazol-5-yl)pyrido[3,4-d]pyrimidin-4-yl]amino}cyclobutyl)methanol] | 16 | > 20 |  | > 100 |
| CS(=O)(=O)CCNc1nc(-c2ccncc2)nc2cnccc12 [Example 41, N-(2-methanesulfonylethyl)-2-(pyridin-4-yl)pyrido[3,4-d]pyrimidin-4-amine] | 708 | > 20 |  | > 10 |
| CC(CO)(CO)Nc1nc(-c2ccncc2)nc2cnccc12 [Example 23, 2-methyl-2-{[2-(pyridin-4-yl)pyrido[3,4-d]pyrimidin-4-yl]amino}propane-1,3-diol] | 10 | 11.8 |  | 9.58 |
| c1cc(-c2nc(NC3CC3)c3ccncc3n2)ccn1 [Example 21, N-cyclopropyl-2-(pyridin-4-yl)pyrido[3,4-d]pyrimidin-4-amine] | 7 | 8.81 |  | 19.2 |
| Cc1ccccc1Nc1nc(-c2ccncc2)nc2cnccc12 [Example 89, N-(2-methylphenyl)-2-(pyridin-4-yl)pyrido[3,4-d]pyrimidin-4-amine] | 44 | > 100 |  | > 100 |
| CC1(Nc2nc(-c3cn[nH]c3)nc3cnccc23)CC1 [Example 194, N-(1-methylcyclopropyl)-2-(1H-pyrazol-4-yl)pyrido[3,4-d]pyrimidin-4-amine] | 5 | 4.24 |  | 11.3 |
| CCN(c1nc(-c2ccncc2F)nc2cnccc12)C(C)C [Example 120, N-ethyl-2-(3-fluoropyridin-4-yl)-N-(propan-2-yl)pyrido[3,4-d]pyrimidin-4-amine] | 10 | 2.93 |  | 2.14 |
| CC1(Nc2nc(-c3cncs3)nc3cnccc23)CC1 [Example 149, N-(1-methylcyclopropyl)-2-(1,3-thiazol-5-yl)pyrido[3,4-d]pyrimidin-4-amine] | 171 | > 20 |  | > 10 |
| CC(C)(Nc1nc(-c2ccncc2)nc2cnccc12)c1ccc(F)cc1 [Example 83, N-[2-(4-fluorophenyl)propan-2-yl]-2-(pyridin-4-yl)pyrido[3,4-d]pyrimidin-4-amine] | 17 | 28.2 |  | 42.1 |
